Results from US10830683B2, “Method for measuring coagulation of blood samples using viscoelastic tests (VET)” (CA Casyso GmbH, priority 2012, dated 2020).

System: citrated whole blood
Assay: ROTEM (NATEM) of recalcified citrated whole blood with added bead suspension or supernatant
Assay type: cell-based, human
Conditions: cell-coated beads preincubated with TNFα 10 ng/ml for 12-16 h; compared with unstimulated cells
Procedure: To seed endothelial cells on microbeads, an approximate cell count of 400 OEC or HUVEC per bead was mixed with Cytodex 3 (collagen-coated) dextran microcarrier beads (GE Healthcare Bio-Sciences AB, Uppsala, Sweden) in 1 ml of EGM-2 medium. Beads and cells were incubated at 37° C. and 5% CO2 for 4 h and shaken gently every 20 min. After transferring the suspension to a 25-cm^2 tissue culture flask (Greiner Bio-One, Linz, Austria), microbeads were optionally incubated with TNFα (Sigma Aldrich, Vienna) at a final concentration of 10 ng/ml for 12-16 h at 37° C. and 5% CO2 in 4 ml of EGM-2 to simulate an inflammatory situation. To assess the influence of collagen, data from bare, collagen-coated Cytodex 3 were compared with uncoated Cytodex 1 (GE Healthcare Bio-Sciences AB, Uppsala, Sweden) beads in an identical setting.
Coated Beads and overnight-conditioned cell culture supernatant were gently taken up with a 10 ml serological pipette and transferred to a 15 ml Falcon tube. Once beads descended, the supernatant was carefully transferred to 1.5 ml tubes and centrifuged at 1,500×g for 20 minutes. […]
The following ROTEM parameters were calculated from the signal and included in the statistical analysis: Clotting time (CT, sec), latency until the clot reaches a firmness of 2 mm; measure for initial thrombin and fibrin formation. […]

For TNFα, which “Clotting time (CT) after prior activation of cells” value is on record?
Its value is “significant further shortening of CT”.
